Test results: patent US3946000A, “7-[α-(2-Aminomethyl-1-cyclohexenyl)-acetamido]-3-heterocyclic thiomethyl-3-cephem-4-carboxylic acids” (Bristol-Myers Company, priority 1973, dated 1976)
Converted amounts (≈) assume the structure as drawn. “And” between values parts separate entries of the source, which are not always exact repeats. Equal entries are not always repeated. Where two headings read alike, the source gives them in different places.

Tests used:
[1] = Solubility in 0.1 M pH 7.0 phosphate buffer (bioassay and UV-assay); format: physicochemical; conditions: for solubility at 4 h: 0.1 m phosphate buffer, pH 7, aqueous buffer; for Solubility, UV (UV-assay): 240 min
Procedure: *Stirred at 25° C. for 4 hours in 0.1 M pH 7.0 phosphate
buffer--filtered through Milipore filter (0.45 μ)--assayed
spectroscopically against its own standard.
The test solution and the standard solution are prepared as described below.
About 10 mg. (1) of a sample is placed in a vial and mixed with 1 ml. of 0.1 M phosphate buffer (pH 7.0). The vial is stoppered, sealed with a metal cap, placed on a rotary shaker and agitated at 160 rpm for 4 hr. at 25° C. The solution is filtered through a Millipore filter (HAWP 01300, mean pore size 0.45 μm). The filtrate is diluted to use for bioassay and UV assay as follows:
About 2 mg. of the same sample is weighed precisely and dissolved in 4 ml. of 1% K2 CO3 solution^(3) (usually within one minute). The solution is diluted exactly to 50 ml. in a flask with 0.1 M pH 7.0 phosphate buffer and used for the preparation of the standard solutions for bioassay and UV-assay as follows:
(1) A 20 mg. or more sample is used when the sample is expected to be more soluble.
(2) 0.1 M pH 7.0 phosphate buffer is used as a diluent in the present test and also as a reference solution in UV-assay.
(3) It was previously confirmed that almost the same result is obtained when the sample is solubilized in DMSO (dimethylsulfoxide) and then diluted similarily with the buffer.
(4) Volume of the solution is measured precisely with an appropriate pipette or flask.
BA: Bioassay, UV: UV-assay Results given for the same compound on different lines were obtained using samples from different lots.

Mycobacterium 607 = assay: M.I.C. by Tube Dilution, Mycobacterium 607; format: cell-based; conditions: overnight at 37° C.
S. aureus Smith A9537 = assay: M.I.C. by Tube Dilution, S. aureus Smith A9537; format: cell-based; conditions: Staphylococcus aureus, 10^-4 dilution, overnight at 37° C.
K. pneumoniae A9977 = assay: M.I.C. by Tube Dilution, K. pneumoniae A9977; format: cell-based; conditions: Klebsiella pneumoniae, 10^-4 dilution, overnight at 37° C.
E. coli Juhl A15119 = assay: M.I.C. by Tube Dilution, E. coli Juhl A15119; format: cell-based; conditions: Escherichia coli, JUHLA15119, 10^-4 dilution, overnight at 37° C.
K. pneumoniae A15130 = assay: M.I.C. by Tube Dilution, K. pneumoniae A15130; format: cell-based; conditions: Klebsiella pneumoniae, 10^-4 dilution, overnight at 37° C.
E. coli NIHJ = assay: M.I.C. by Tube Dilution, E. coli NIHJ; format: cell-based; conditions: Escherichia coli, overnight at 37° C.
E. coli ATCC 8739 = assay: M.I.C. by Tube Dilution, E. coli ATCC 8739; format: cell-based; conditions: Escherichia coli, ATCC8739, overnight at 37° C.
Ser. marcescens A20019 = assay: M.I.C. by Tube Dilution, Ser. marcescens A20019; format: cell-based; conditions: Serratia marcescens, 10^-4 dilution, overnight at 37° C.
Pr. mirabilis A9900 = assay: M.I.C. by Tube Dilution, Pr. mirabilis A9900; format: cell-based; conditions: Proteus mirabilis, 10^-4 dilution, overnight at 37° C.
S. aureus Russel = assay: M.I.C. by Tube Dilution, S. aureus Russel; format: cell-based; conditions: Nutrient Broth, overnight at 37° C.; for MIC: Staphylococcus aureus
D. pneumoniae A9585 = assay: M.I.C. by Tube Dilution, D. pneumoniae A9585; format: cell-based; conditions: Streptococcus pneumoniae, A9585, D. pneumoniae A9585 + 5% serum; 50% Nutrient Broth - 45% Antibiotic Assay Broth; overnight at 37° C.
S. aureus BX1633 A9606 = assay: M.I.C. by Tube Dilution, S. aureus BX1633 A9606; format: cell-based; conditions: Nutrient Broth, overnight at 37° C.; for MIC: Staphylococcus aureus, BX1633A9606, S. aureus BX1633 A9606
Pr. morganii A15153 = assay: M.I.C. by Tube Dilution, Pr. morganii A15153; format: cell-based; conditions: Morganella morganii, 10^-4 dilution, overnight at 37° C.
Sal. enteritidis A9531 = assay: M.I.C. by Tube Dilution, Sal. enteritidis A9531; format: cell-based; conditions: Salmonella enterica, 10^-4 dilution, overnight at 37° C.
Ps. aeruginosa A9843 = assay: M.I.C. by Tube Dilution, Ps. aeruginosa A9843; format: cell-based; conditions: Pseudomonas aeruginosa, 10^-4 dilution, overnight at 37° C.
Str. pyogenes A9604 = assay: M.I.C. by Tube Dilution, Str. pyogenes A9604; format: cell-based; conditions: Streptococcus pyogenes; Str. pyogenes A9604 + 5% serum; 50% Nutrient Broth - 45% Antibiotic Assay Broth; overnight at 37° C.
S. aureus BX-1633 = assay: Minimum curative dose in infected mice, S. aureus BX-1633; format: in vivo; conditions: Staphylococcus aureus, BX1633, sc; subcutaneous, mice infected with lethal dose of S. aureus BX-1633; read-out: CD50 (minimum curative dose for 50% of the mice)
E coli Juhl = assay: Minimum curative dose in infected mice, E coli Juhl; format: in vivo; conditions: Mus musculus, sc; subcutaneous, mice infected with lethal dose of E coli Juhl; read-out: CD50 (minimum curative dose for 50% of the mice)
[2] = 0.1 M phosphate buffer (pH 7.0), 4 hr. at 25° C., UV-assay, read-out: Solubility, UV (UV-assay)
[3] = 0.1 M phosphate buffer (pH 7.0), 4 hr. at 25° C., bioassay, read-out: Solubility, BA (bioassay)
[4] = stirred at 25° C. for 4 hours in 0.1 M pH 7.0 phosphate buffer, assayed spectroscopically against its own standard, read-out: Solubility
[5] = 0.1 M phosphate buffer (pH 7.0), 4 hr. at 25° C., UV-assay
[6] = UV-assay, read-out: Solubility (UV)
[7] = bioassay, read-out: Solubility (BA)

NCc1ccccc1CC(=O)NC1C(=O)N2C(C(=O)O)=C(CSc3ccc(O)nn3)CSC12 (stereo not shown) [BB-S150, reference compound]
solubility at 4 h [1, 2]: 4400 µg/mL (≈ 9.02 mM)
solubility at 4 h [1, 3]: 4400 µg/mL (≈ 9.02 mM)
solubility at 4 h [1, 4]: 4400 µg/mL (≈ 9.02 mM)

NCc1ccccc1CC(=O)NC1C(=O)N2C(C(=O)O)=C(CSc3ccc4nnc(O)n4n3)CSC12 (stereo not shown) [BB-S207, reference compound]
Solubility, UV (UV-assay) [1, 5]: 3600 µg/mL (≈ 6.82 mM)
solubility at 4 h [1, 2]: 3900 µg/mL (≈ 7.39 mM)
solubility at 4 h [1, 3]: 4200 µg/mL (≈ 7.96 mM)
solubility at 4 h [1, 4]: 3600 µg/mL (≈ 6.82 mM)

NCc1ccccc1CC(=O)NC1C(=O)N2C(C(=O)O)=C(CSc3ccc4nnnn4n3)CSC12 (stereo not shown) [BB-S226, reference compound]
Solubility, UV (UV-assay) [1, 5]: 2100 µg/mL and 3500 µg/mL and 2200 µg/mL
solubility at 4 h [1, 2]: 2500 µg/mL (≈ 4.88 mM)
solubility at 4 h [1, 3]: 3800 µg/mL (≈ 7.41 mM)
solubility at 4 h [1, 4]: 3500 µg/mL (≈ 6.83 mM)

NCC1=C(CC(=O)NC2C(=O)N3C(C(=O)O)=C(CSc4ccc(O)nn4)CS[C@H]23)CCCC1 (stereo partly drawn) [Example 1, 7-[α-(2-aminomethyl-1-cyclohexenyl)acetamido]-3-(6-hydroxypyridazin-3-ylthiomethyl)-3-cephem-4-carboxylic acid]
solubility at 4 h [1, 2]: 16000 µg/mL (≈ 32.5 mM)
solubility at 4 h [1, 3]: 16800 µg/mL (≈ 34.2 mM)
solubility at 4 h [1, 4]: 16000 to 16800 µg/mL (≈ 32.5 to 34.2 mM)

NCC1=C(CC(=O)NC2C(=O)N3C(C(=O)O)=C(CSc4ccc5nnnn5n4)CSC23)CCCC1 (stereo not drawn) [Example 2, 7-[α-(2-aminomethyl-1-cyclohexenyl)acetamido]-3-(pyradazino[2,3-d]tetrazol-6-ylthiomethyl)-3-cephem-4-carboxylic acid]
solubility at 4 h [1, 2]: 3000 µg/mL (≈ 5.81 mM)
solubility at 4 h [1, 3]: 3000 µg/mL (≈ 5.81 mM)
solubility at 4 h [1, 4]: 3000 µg/mL (≈ 5.81 mM)

Cc1nnc(SCC2=C(C(=O)O)N3C(=O)C(NC(=O)CC4=C(CN)CCCC4)[C@H]3SC2)s1 (stereo partly drawn) [Example 4, 7-[α-(2-aminomethyl-1-cyclohexenyl)acetamido]-3-(5-methyl-1,3,4-thiadiazol-2-ylthiomethyl)-3-cephem-4-carboxylic acid]
solubility at 4 h [1, 2]: 4600 µg/mL (≈ 9.28 mM)
solubility at 4 h [1, 3]: 4300 µg/mL (≈ 8.68 mM)
solubility at 4 h [1, 4]: 4300 to 4600 µg/mL (≈ 8.68 to 9.28 mM)

NCC1=C(CC(=O)NC2C(=O)N3C(C(=O)O)=C(CSc4ccc5nnc(O)n5n4)CSC23)CCCC1 (stereo not drawn) [Example 5, 7-[α-(2-Aminomethyl-1-cyclohexenyl)acetamido]-3-(3-hydroxypyridazino-[3,2-c]-3-triazol-6-ylthiomethyl)-3-cephem-4-carboxylic acid]
solubility at 4 h [1, 2]: 8100 µg/mL (≈ 15.2 mM)
solubility at 4 h [1, 3]: 8000 µg/mL (≈ 15 mM)
solubility at 4 h [1, 4]: 8000 µg/mL (≈ 15 mM)

CC(=O)OCC1=C(C(=O)O)N2C(=O)C(NC(=O)CC3=C(CN)CCCC3)C2SC1 (stereo not drawn) [Example 16, 7-[α-(2-Aminomethy-1-cyclohexenyl)acetamido]cephalosporanic acid]
MIC (Mycobacterium 607): > 100 µg/mL
MIC (S. aureus Smith A9537; SMITHA9537, S. aureus Smith A9537 + 50% serum): 3.1 µg/mL
MIC (S. aureus Smith A9537; SMITHA9537, S. aureus Smith A9537, Nutrient Broth): 0.8 µg/mL (≈ 0.00189 mM)
MIC (K. pneumoniae A9977): 12.5 to 25 µg/mL (≈ 0.0295 to 0.059 mM)
MIC (E. coli Juhl A15119): 25 µg/mL (≈ 0.059 mM)
MIC (K. pneumoniae A15130): 12.5 to 50 µg/mL (≈ 0.0295 to 0.118 mM)
MIC (E. coli NIHJ): 25 to 50 µg/mL (≈ 0.059 to 0.118 mM)
MIC (E. coli ATCC 8739): 25 µg/mL (≈ 0.059 mM)
MIC (Ser. marcescens A20019): > 100 µg/mL
MIC (Pr. mirabilis A9900): 50 µg/mL (≈ 0.118 mM)
solubility at 4 h [1, 6]: 5300 µg/mL (≈ 12.5 mM)
solubility at 4 h [1, 7]: 5400 µg/mL (≈ 12.8 mM)
MIC (S. aureus Russel): 0.8 to 1.6 µg/mL (≈ 0.00189 to 0.00378 mM)
MIC (D. pneumoniae A9585): 0.16 to 0.31 µg/mL
MIC (S. aureus BX1633 A9606): 3.1 µg/mL (≈ 0.00732 mM)
MIC (Pr. morganii A15153): > 100 µg/mL
MIC (Sal. enteritidis A9531): 12.5 µg/mL (≈ 0.0295 mM)
MIC (Ps. aeruginosa A9843): > 100 µg/mL

CC1=C(C(=O)O)N2C(=O)C(NC(=O)CC3=C(CN)CCCC3)C2SC1 (stereo not drawn) [Example 17, 7-[α-(2-Aminomethyl-1-cyclohexenyl)acetamido]desacetoxycephalosporanic acid]
MIC (Mycobacterium 607): > 100 µg/mL
MIC (K. pneumoniae A9977): > 100 µg/mL
MIC (E. coli Juhl A15119): > 100 µg/mL
MIC (K. pneumoniae A15130): > 100 µg/mL
MIC (E. coli NIHJ): > 100 µg/mL
MIC (E. coli ATCC 8739): > 100 µg/mL
MIC (Ser. marcescens A20019): > 100 µg/mL
MIC (Pr. mirabilis A9900): > 100 µg/mL
MIC (Str. pyogenes A9604): 1.25 to 2.5 µg/mL
solubility at 4 h [1, 6]: 3300 µg/mL (≈ 9.03 mM)
solubility at 4 h [1, 7]: 4100 µg/mL (≈ 11.2 mM)
M.I.C. (S. aureus Russel; listed as 6x): 12.5 Mcg./ml.
MIC (S. aureus Russel): > 12.5 µg/mL
M.I.C. (S. aureus BX1633 A9606; S. aureus BX1633 A9606, listed as 6x): 25 Mcg./ml.
MIC (S. aureus BX1633 A9606): > 12.5 µg/mL
MIC (Pr. morganii A15153): > 100 µg/mL
MIC (Sal. enteritidis A9531): > 100 µg/mL
MIC (Ps. aeruginosa A9843): > 100 µg/mL

Cn1nnnc1SCC1=C(C(=O)O)N2C(=O)C(NC(=O)Cc3ccccc3CN)C2SC1 (stereo not shown) [MR-S94, reference compound]
ED50 (S. aureus BX-1633): 3.4 mg/kg
ED50 (E coli Juhl): 4.4 mg/kg
solubility at 4 h [1, 2]: 1900 µg/mL (≈ 4 mM)
solubility at 4 h [1, 3]: 2000 µg/mL (≈ 4.21 mM)
solubility at 4 h [1, 4]: 1900 µg/mL (≈ 4 mM)

Cc1nnc(SCC2=C(C(=O)O)N3C(=O)C(NC(=O)Cc4ccccc4CN)C3SC2)s1 (stereo not shown) [MR-S96, reference compound]
solubility at 4 h [1, 2]: 900 µg/mL (≈ 1.83 mM)
solubility at 4 h [1, 3]: 1200 µg/mL (≈ 2.44 mM)
solubility at 4 h [1, 4]: 900 µg/mL (≈ 1.83 mM)
